Columns and labels:
[1] = molecular target: T1, FGFR2 (Homo sapiens, UniProt P21802); assay: FGFR2 Biochemical Caliper Assay (KinEASE-TK kit); conditions: 0.07 nM FGFR2; compound incubated with protein 10 min, reaction 45 min at RT; read-out: FGFR2 Cliper IC50
T1 construct: purchased Carna 08-134

[2] = molecular target: T2, FGFR1 (Homo sapiens, UniProt P11362); assay: FGFR1 Biochemical Caliper Assay (KinEASE-TK kit); conditions: ratio FGFR1/FGFR2 of the biochemical assay
T2 construct: purchased Carna 08-133
How it was run: (§1)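 KinEASE-TK HTRF readout: enzyme at 0.2 nM (FGFR1, FGFR3) preincubated 10 min at RT with 10-point 3-fold compound dilutions before TK-substrate/ATP start.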

[3] = molecular target: T3, FGFR3 (Homo sapiens, UniProt P22607); assay: FGFR3 Biochemical Caliper Assay (KinEASE-TK kit); conditions: ratio FGFR3/FGFR2 of the biochemical assay
T3 construct: purchased Carna 08-135
How it was run: as §1

[4] = system: SNU16 cells; assay: SNU16 Cancer Cell Line Proliferation Assay (CellTiter-Glo); format: cell-based; conditions: Homo sapiens, SNU-16, 72 h
How it was run: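 SNU16 cells at 5000/well exposed to 9-point 3-fold serial compound dilutions (DMSO control) for 72 h at 37 °C, 5% CO2. Viability read by luminescence; IC50 calculated from dose-response.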

T2 sequence (P11362 22-822): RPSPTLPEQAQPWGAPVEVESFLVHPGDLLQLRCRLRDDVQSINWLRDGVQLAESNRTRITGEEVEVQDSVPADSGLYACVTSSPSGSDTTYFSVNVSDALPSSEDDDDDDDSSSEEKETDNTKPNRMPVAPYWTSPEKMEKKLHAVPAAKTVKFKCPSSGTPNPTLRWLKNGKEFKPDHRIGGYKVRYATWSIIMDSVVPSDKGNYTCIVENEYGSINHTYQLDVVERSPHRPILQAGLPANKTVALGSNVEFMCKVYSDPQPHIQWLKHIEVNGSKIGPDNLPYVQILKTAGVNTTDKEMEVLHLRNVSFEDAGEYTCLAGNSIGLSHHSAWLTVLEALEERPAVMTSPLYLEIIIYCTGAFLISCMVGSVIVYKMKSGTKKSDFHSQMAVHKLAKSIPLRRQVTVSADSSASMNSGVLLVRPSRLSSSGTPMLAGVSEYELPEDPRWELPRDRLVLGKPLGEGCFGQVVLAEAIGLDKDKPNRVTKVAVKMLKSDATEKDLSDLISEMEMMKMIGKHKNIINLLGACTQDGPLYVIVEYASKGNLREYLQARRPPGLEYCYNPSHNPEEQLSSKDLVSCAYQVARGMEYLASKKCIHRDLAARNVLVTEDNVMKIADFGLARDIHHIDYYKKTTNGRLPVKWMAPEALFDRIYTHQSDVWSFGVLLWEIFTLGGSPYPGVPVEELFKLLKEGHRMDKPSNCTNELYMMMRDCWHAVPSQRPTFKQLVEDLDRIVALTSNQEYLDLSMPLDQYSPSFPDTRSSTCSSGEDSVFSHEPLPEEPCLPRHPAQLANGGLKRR
T1 sequence (P21802 22-821): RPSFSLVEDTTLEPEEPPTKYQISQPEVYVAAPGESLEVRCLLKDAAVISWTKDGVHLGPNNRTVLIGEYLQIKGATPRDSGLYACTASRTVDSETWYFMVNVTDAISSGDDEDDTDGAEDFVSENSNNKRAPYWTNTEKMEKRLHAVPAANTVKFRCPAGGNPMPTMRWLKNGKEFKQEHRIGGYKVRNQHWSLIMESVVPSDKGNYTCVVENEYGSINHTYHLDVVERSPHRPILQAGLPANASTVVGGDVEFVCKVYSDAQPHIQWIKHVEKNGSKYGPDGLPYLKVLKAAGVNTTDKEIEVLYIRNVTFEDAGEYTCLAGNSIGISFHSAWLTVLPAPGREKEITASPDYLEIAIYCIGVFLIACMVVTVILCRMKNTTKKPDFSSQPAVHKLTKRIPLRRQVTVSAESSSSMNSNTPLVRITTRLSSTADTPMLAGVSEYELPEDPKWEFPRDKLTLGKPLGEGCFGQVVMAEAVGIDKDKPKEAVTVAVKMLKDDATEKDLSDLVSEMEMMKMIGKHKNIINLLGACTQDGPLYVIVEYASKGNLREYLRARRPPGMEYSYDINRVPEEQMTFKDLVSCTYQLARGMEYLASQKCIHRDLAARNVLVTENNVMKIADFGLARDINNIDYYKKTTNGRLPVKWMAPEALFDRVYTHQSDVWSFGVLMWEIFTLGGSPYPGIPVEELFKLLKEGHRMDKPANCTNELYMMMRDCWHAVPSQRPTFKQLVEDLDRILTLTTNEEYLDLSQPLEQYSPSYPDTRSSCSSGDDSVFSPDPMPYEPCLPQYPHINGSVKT
T3 sequence (P22607 23-806): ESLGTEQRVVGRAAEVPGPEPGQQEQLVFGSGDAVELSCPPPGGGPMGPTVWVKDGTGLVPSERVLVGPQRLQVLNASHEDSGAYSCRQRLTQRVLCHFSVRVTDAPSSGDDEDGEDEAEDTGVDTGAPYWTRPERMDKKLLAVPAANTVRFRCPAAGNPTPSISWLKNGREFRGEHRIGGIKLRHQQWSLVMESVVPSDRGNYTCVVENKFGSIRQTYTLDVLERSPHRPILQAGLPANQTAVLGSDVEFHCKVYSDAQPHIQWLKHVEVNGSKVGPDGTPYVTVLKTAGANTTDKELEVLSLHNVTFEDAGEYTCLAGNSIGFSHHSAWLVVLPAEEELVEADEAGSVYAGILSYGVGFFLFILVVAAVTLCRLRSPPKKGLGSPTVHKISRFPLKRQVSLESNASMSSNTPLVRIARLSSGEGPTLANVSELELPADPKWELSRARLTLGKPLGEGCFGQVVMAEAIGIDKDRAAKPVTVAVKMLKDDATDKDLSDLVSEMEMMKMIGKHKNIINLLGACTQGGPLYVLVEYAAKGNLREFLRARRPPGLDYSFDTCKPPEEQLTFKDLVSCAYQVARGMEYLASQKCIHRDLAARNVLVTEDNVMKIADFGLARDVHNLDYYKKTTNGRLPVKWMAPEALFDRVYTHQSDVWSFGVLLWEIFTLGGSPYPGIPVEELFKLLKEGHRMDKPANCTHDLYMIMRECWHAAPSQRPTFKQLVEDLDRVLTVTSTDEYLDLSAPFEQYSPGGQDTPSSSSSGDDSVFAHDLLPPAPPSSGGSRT

IC50 [1] | IC50 [4] | Compound | Selectivity FGFR1/FGFR2 [2] | Selectivity FGFR3/FGFR2 [3]
< 5 nM | ≤ 10 nM | [2H]C([2H])([2H])n1c(-c2ccc(NC(=O)C=C)cc2)c(-c2ccc(C(=O)NCC(F)(F)F)c(OC)c2)c2c(N)ncc(C#N)c21 [Compound 355, 4-(2-(4-acrylamidophenyl)-4-amino-7-cyano-1-(methyl-d3)-1H-pyrrolo[3,2-c]pyridin-3-yl)-2-methoxy-N-(2,2,2-trifluoroethyl)benzamide] | A (Selectivity of FGFR1/FGFR2 less than 500 but greater than or equal to 300) | A+ (Selectivity of FGFR3/FGFR2 greater or equal to 150)
< 5 nM | ≤ 10 nM | C=CC(=O)Nc1ccc(-c2nn3ncnc(N)c3c2-c2ccc(Oc3nccc(CC)n3)c(F)c2)cc1 [Compound 400, N-(4-(4-amino-5-(4-((4-ethylpyrimidin-2-yl)oxy)-3-fluorophenyl)pyrazolo[5,1-f][1,2,4]triazin-6-yl)phenyl)acrylamide] | A+ (Selectivity of FGFR1/FGFR2 greater or equal to 500) | A+ (Selectivity of FGFR3/FGFR2 greater or equal to 150)
< 5 nM | > 50 nM | C#CC(=O)Nc1ccc(-c2nn3ncnc(N)c3c2-c2ccc(Oc3cccc(C)n3)c(F)c2)cc1 [Compound 410] | A (Selectivity of FGFR1/FGFR2 less than 500 but greater than or equal to 300) | A (Selectivity of FGFR3/FGFR2 less than 150 but greater than or equal to 100)
< 5 nM | ≤ 10 nM | C=C(F)C(=O)Nc1ccc(-c2nn3ncnc(N)c3c2-c2ccc(C(=O)NC34CC(C3)C4)c(OC)c2)c(F)c1 [Compound 357, 4-(4-amino-6-(2-fluoro-4-(2-fluoroacryl amido)phenyl)pyrazolo[5,1-f][1,2,4]triazin-5-yl)-N-(bicyclo[1.1.1]pentan-1-yl)-2-methoxybenzamide] | A (Selectivity of FGFR1/FGFR2 less than 500 but greater than or equal to 300) | A+ (Selectivity of FGFR3/FGFR2 greater or equal to 150)
< 5 nM | ≤ 10 nM | C=C(F)C(=O)Nc1ccc(-c2nn3ncnc(N)c3c2-c2ccc(Oc3cccc(C)n3)c(F)c2)c(F)c1 [Compound 438, N-(4-(4-amino-5-(3-fluoro-4-((6-methylpyridin-2-yl)oxy)phenyl)pyrazolo [5,1-f][1,2,4]triazin-6-yl)-3-fluorophenyl)-2-fluoroacrylamide] | A+ (Selectivity of FGFR1/FGFR2 greater or equal to 500) | A+ (Selectivity of FGFR3/FGFR2 greater or equal to 150)
> 10 nM | ≤ 10 nM | C=C(C)C(=O)Nc1ccc(-c2c(-c3ccc(Oc4cccc(C)n4)cc3)c3c(N)ncc(C#N)c3n2C)c(F)c1 [Compound 468, N-(4-(4-amino-7-cyano-1-methyl-3-(4-((6-methylpyridin-2-yl)oxy)phenyl)-1H-pyrrolo[3,2-c]pyridin-2-yl)-3-fluorophenyl) methacrylamide] | A+ (Selectivity of FGFR1/FGFR2 greater or equal to 500) | A+ (Selectivity of FGFR3/FGFR2 greater or equal to 150)
< 5 nM | ≤ 10 nM | C=C(F)C(=O)Nc1ccc(-c2nn3ncnc(N)c3c2-c2ccc(C(=O)NC34CC(F)(C3)C4)c(OC)c2)c(F)c1 [Compound 427, 4-(4-amino-6-(2-fluoro-4-(2-fluoroacryl-amido)phenyl)pyrazolo[5,1-f][1,2,4]triazin-5-yl)-N-(3-fluorobicyclo [1.1.1]pentan-1-yl)-2-methoxybenzamide] | A+ (Selectivity of FGFR1/FGFR2 greater or equal to 500) | A (Selectivity of FGFR3/FGFR2 less than 150 but greater than or equal to 100)

More lines, now with the values behind:

Compound | IC50 [1] | IC50 [4] | Selectivity FGFR1/FGFR2 [2] | Selectivity FGFR3/FGFR2 [3]
C=C(F)C(=O)Nc1ccc(-c2[nH]c3c(C#N)cnc(N)c3c2-c2ccc(C(=O)NC3CC(F)(F)C3)c(OC)c2)cc1 [Compound 319, 4-(4-amino-7-cyano-2-(4-(2-fluoroacrylamido)phe-nyl)-1H-pyrrolo[3,2-c]pyridin-3-yl)-N-(3,3-difluorocyclobutyl)-2-methoxybenzamide] | < 5 nM | ≤ 10 nM | A (Selectivity of FGFR1/FGFR2 less than 500 but greater than or equal to 300) | A+ (Selectivity of FGFR3/FGFR2 greater or equal to 150)
C=CC(=O)Nc1ccc(-c2c(-c3ccc(C(=O)NCC)c(OC)c3)c3c(N)ncc(C#N)c3n2C)cc1 [Compound 107, 4-(2-(4-acrylamidophenyl)-4-amino-7-cyano-1-methyl-1H-pyrrolo[3,2-c]pyridin-3-yl)-N-ethyl-2-methoxybenzamide] | < 5 nM | ≤ 10 nM | A+ (Selectivity of FGFR1/FGFR2 greater or equal to 500) | A (Selectivity of FGFR3/FGFR2 less than 150 but greater than or equal to 100)
C=CC(=O)Nc1ccc(-c2nn3ncnc(N)c3c2-c2ccc(C(=O)NCC(C)C)c(OC)c2)cc1 [Compound 81, 4-(6-(4-acrylamidophenyl)-4-aminopyrazolo[5,1-f] [1,2,4]triazin-5-yl)-N-isobutyl-2-methoxybenzamide] | < 5 nM | ≤ 10 nM | A+ (Selectivity of FGFR1/FGFR2 greater or equal to 500) | A+ (Selectivity of FGFR3/FGFR2 greater or equal to 150)
C=C(F)C(=O)Nc1ccc(-c2nn3ncnc(N)c3c2-c2ccc(C(=O)NCC3(F)CC3)c(OC)c2)cc1 [Compound 204, 4-(4-amino-6-(4-(2-fluoroacrylamido)phe-nyl)pyrazolo[5,1-f][1,2,4]triazin-5-yl)-N-((1-fluorocyclopropyl)methyl)-2-methoxybenzamide] | < 5 nM | ≤ 10 nM | A+ (Selectivity of FGFR1/FGFR2 greater or equal to 500) | A (Selectivity of FGFR3/FGFR2 less than 150 but greater than or equal to 100)
C=C(F)C(=O)Nc1ccc(-c2nn3ncnc(N)c3c2-c2ccc(C(=O)NC3CC(F)(F)C3)c(OC)c2)c(F)c1 [Compound 234] | < 5 nM | ≤ 10 nM | A+ (Selectivity of FGFR1/FGFR2 greater or equal to 500) | A+ (Selectivity of FGFR3/FGFR2 greater or equal to 150)
C=CC(=O)Nc1ccc(-c2[nH]c3c(C#N)cnc(N)c3c2-c2ccc(C(=O)NCC(F)(F)F)c(OC)c2)cc1 [Compound 248] | < 5 nM | ≤ 10 nM | C (Selectivity of FGFR1/FGFR2 less than 200 but greater than or equal to 100) | A+ (Selectivity of FGFR3/FGFR2 greater or equal to 150)
C=C(F)C(=O)Nc1ccc(-c2nn3ncnc(N)c3c2-c2ccc(C(=O)NC3CC3)c(OC)c2)c(F)c1 [Compound 153, 4-(4-amino-6-(2-fluoro-4-(2-fluoroacrylamido)phenyl)pyrazolo[5,1-f][1,2,4]triazin-5-yl)-N-cyclopropyl-2-methoxybenzamide] | < 5 nM | ≤ 10 nM | A+ (Selectivity of FGFR1/FGFR2 greater or equal to 500) | A+ (Selectivity of FGFR3/FGFR2 greater or equal to 150)
C=C(F)C(=O)Nc1ccc(-c2nn3ncnc(N)c3c2-c2ccc(C(=O)NC3CCCC3)c(OC)c2)cc1 [Compound 93, 4-(4-amino-6-(4-(2-fluoroacrylamido)phe-nyl)pyrazolo[5,1-f] [1,2,4]triazin-5-yl)-N-cyclopentyl-2-methoxybenzamide] | > 10 nM | ≤ 10 nM | A+ (Selectivity of FGFR1/FGFR2 greater or equal to 500) | A+ (Selectivity of FGFR3/FGFR2 greater or equal to 150)
C=CC(=O)Nc1ccc(-c2nn3ncnc(N)c3c2-c2ccc(C(=O)NCC(F)(F)F)c(OC)c2)cn1 [Compound 90, 4-(6-(6-acrylamidopyridin-3-yl)-4-aminopyrazolo[5,1-f] [1,2,4]triazin-5-yl)-2-methoxy-N-(2,2,2-trifluoroethyl)benzamide] | < 5 nM | 10 to 50 nM | A (Selectivity of FGFR1/FGFR2 less than 500 but greater than or equal to 300) | B (Selectivity of FGFR3/FGFR2 less than 100 but greater than or equal to 25)
C=C(F)C(=O)Nc1ccc(-c2c(-c3ccc(Oc4nccc(C)n4)c(F)c3)c3c(N)ncc(C#N)c3n2C)cc1 [Compound 344, N-(4-(4-amino-7-cyano-3-(3-fluoro-4-((4-methylpyrimidin-2-yl)oxy)phenyl)-1-methyl-1H-pyrrolo[3,2-c]pyridin-2-yl)phenyl)-2-fluoroacrylamide] | < 5 nM | ≤ 10 nM | A+ (Selectivity of FGFR1/FGFR2 greater or equal to 500) | A (Selectivity of FGFR3/FGFR2 less than 150 but greater than or equal to 100)
C=CC(=O)Nc1ccc(-c2nn3ncnc(N)c3c2-c2ccc(C(=O)NCC(F)F)c(OC)c2)cc1 [Compound 196, 4-(6-(4-acrylamidophenyl)-4-aminopyrazolo[5,1-f][1,2,4]triazin-5-yl)-N-(2,2-difluoroethyl)-2-methoxybenzamide] | < 5 nM | ≤ 10 nM | A (Selectivity of FGFR1/FGFR2 less than 500 but greater than or equal to 300) | A+ (Selectivity of FGFR3/FGFR2 greater or equal to 150)
C=C(F)C(=O)Nc1ccc(-c2nn3ncnc(N)c3c2-c2ccc(C(=O)NCC3CC3)c(OC)c2)cc1 [Compound 163] | < 5 nM | ≤ 10 nM | A+ (Selectivity of FGFR1/FGFR2 greater or equal to 500) | A+ (Selectivity of FGFR3/FGFR2 greater or equal to 150)
